# Measurements: PubChem BioAssay (NCI)
# Values joined by “and” are separate entries in the source; they are usually repeats but may differ in a detail not shown here. Equal values may be shown once.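 48-hour exposure; five concentrations; linearly interpolated endpoints. GI50 is the concentration that inhibits growth by half. At the TGI there is no net growth.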
# What was measured:
# Assay in all cases: NCI tumour cell line growth inhibition, 48 h
# MALME-3M melanoma = tested on: MALME-3M melanoma
# OVCAR-8 ovarian = tested on: OVCAR-8 ovarian
# CCRF-CEM leukemia = tested on: CCRF-CEM leukemia
# K-562 leukemia = tested on: K-562 leukemia
# COLO 205 colon = tested on: COLO 205 colon
# ACHN renal = tested on: ACHN renal
# SNB-75 CNS = tested on: SNB-75 CNS
# SF-268 CNS = tested on: SF-268 CNS
# UO-31 renal = tested on: UO-31 renal
# NCI/ADR-RES ovarian = tested on: NCI/ADR-RES ovarian
SMILES,TGI (MALME-3M melanoma),TGI (OVCAR-8 ovarian),TGI (CCRF-CEM leukemia),TGI (K-562 leukemia),TGI (COLO 205 colon),TGI (ACHN renal),TGI (SNB-75 CNS),TGI (SF-268 CNS),TGI (UO-31 renal),GI50 (CCRF-CEM leukemia),GI50 (SNB-75 CNS),TGI (NCI/ADR-RES ovarian)
CCOC(=O)c1cc2c(OCc3ccccc3)c(OC)cc3c2c(n1)N(c1ccc(OC)cc1)C(C)C3 (stereo not drawn),> 50 µM,> 50 µM,> 50 µM,> 50 µM,> 50 µM,> 50 µM,> 50 µM,> 50 µM,> 50 µM,–,–,–
COC(=O)CC(C(C(=O)OCc1ccccc1)C(C)O)N1C(=O)OC(c2ccccc2)C1c1ccccc1 (stereo not drawn),> 100 µM,> 100 µM,> 100 µM,> 100 µM,> 100 µM,> 100 µM,–,> 100 µM,> 100 µM,–,–,–
COc1cc(C2C(Cl)C(=O)N2NC(=O)c2ccc(NC(C)=O)cc2)ccc1O (stereo not drawn),> 100 µM,> 100 µM,> 100 µM,> 100 µM,> 100 µM,> 100 µM,–,> 100 µM,> 100 µM,–,–,–
Cc1cn(C2CC(CCCO)C(CO)O2)c(=O)[nH]c1=O (stereo not drawn),> 100 µM,> 100 µM,> 100 µM,> 100 µM,> 100 µM,> 100 µM,> 100 µM,> 100 µM,> 100 µM,> 100 µM,> 100 µM and 30.5 µM,–
Cc1ccc(N(O)C(C)(C)C)cc1,> 100 µM,> 100 µM,> 100 µM,> 100 µM,> 100 µM,–,> 100 µM,> 100 µM,> 100 µM,–,–,> 100 µM
COc1cccc(/C(Cl)=C(\C=O)c2cccc(OC)c2)c1,12.8 µM,30.5 µM,28.8 µM,46 µM,24.2 µM,25.8 µM,40.5 µM,21.2 µM,68.1 µM,–,–,–
O=NN(CCF)C(=O)NC1CC2CCC1C2 (stereo not drawn),> 100 µM,> 100 µM,> 100 µM,> 100 µM,> 100 µM,–,> 100 µM,> 100 µM,> 100 µM,–,–,> 100 µM
CCC(COC(=O)CC[C@@H](NC(=O)C(C)NC(=O)C(C)OC1C(O)C(CO)OC(OCc2ccccc2)C1NC(C)=O)C(N)=O)NC1c2ccccc2Nc2cccc([N+](=O)[O-])c21 (stereo partly drawn),> 100 µM,> 100 µM,> 100 µM,> 100 µM,> 100 µM,> 100 µM,> 100 µM,> 100 µM,> 100 µM,–,–,–
CCCc1c(C(=O)OCC)[nH]c(-c2ccc(-c3[nH]c(C(=O)OCC)c(CCC)c3C(=O)OCC)s2)c1C(=O)OCC,> 100 µM,> 100 µM,> 100 µM,> 100 µM,> 100 µM,> 100 µM,58 µM,> 100 µM,> 100 µM,–,–,–
CC(=O)NNc1nc(C)c(C(=O)NNC(=O)C(=O)Nc2cccc(C(C)=O)c2)s1,–,39.4 µM,67.3 µM,> 100 µM,> 100 µM,30.8 µM,38.9 µM,54 µM,30.9 µM,–,–,–
C[S+](C)CC1OC(n2cnc3c(N)ncnc32)C(O)C1O (stereo not drawn),> 225 µM,> 225 µM,> 225 µM,> 225 µM,> 225 µM,–,> 225 µM,> 225 µM,> 225 µM,–,–,> 225 µM
CN(C)CCNC(=O)c1cccc2cc3cc(O)ccc3nc12,2.54 µM,3.34 µM,5.44 µM,11.8 µM,3.88 µM,–,6.31 µM,5.66 µM,–,–,–,11.4 µM
CC(C)OP(=O)(OC(C)C)C1=NN(c2ccc([N+](=O)[O-])cc2)C(P(=O)(OC(C)C)OC(C)C)=NN1c1ccc([N+](=O)[O-])cc1,> 100 µM,> 100 µM,> 100 µM,> 100 µM,> 100 µM,> 100 µM,–,> 100 µM,> 100 µM,–,–,–
O=c1c2ccccc2nc(-c2ccccc2)n1NC(=S)Nc1ccc(Cl)cc1,> 100 µM,> 100 µM,> 100 µM,> 100 µM,> 100 µM,> 100 µM,> 100 µM,> 100 µM,> 100 µM,–,–,–
O=C1Nc2cc([N+](=O)[O-])c(Br)cc2C1=O,46.4 µM,31.6 µM,32.1 µM,55.7 µM,35 µM,35.3 µM,52 µM,44.1 µM,36.2 µM,–,–,–
CCOC(=O)C(C)Sc1nnc(COc2ccccc2OC)n1-c1ccccc1 (stereo not drawn),> 100 µM,> 100 µM,> 100 µM,> 100 µM,> 100 µM,> 100 µM,> 100 µM,> 100 µM,> 100 µM,–,–,–
CC(C)(C)C(=O)OCC1OC(N=[N+]=[N-])C(OC(=O)C(C)(C)C)C(OC(=O)C(C)(C)C)C1OC(=O)C(C)(C)C (stereo not drawn),> 100 µM,> 100 µM,> 100 µM,> 100 µM,> 100 µM,> 100 µM,> 100 µM,> 100 µM,> 100 µM,–,–,–
COc1ccc2nc3c(c(NCCCN(C)C)c2c1)CCCC3,33.9 µM,36.4 µM,28.3 µM,8.3 µM,23 µM,55.3 µM,26.9 µM,–,39.6 µM,–,–,–
